The test system of assay [1] is CD4+ T cells in PBMC from people with recent onset T1D. The assay can be described thus: CFSE-based proliferation assay, PBMC of people with T1D. Particulars: CFSE-labelled PBMC, peptide 10 μM, mean CDI. Format: cell-based, human. How it is done:
(§1) Blood was obtained by venepuncture. Peripheral blood mononuclear cells (PBMC) were isolated over Ficoll-paque (GE Healthcare) and washed twice in phosphate buffered saline (PBS) as described. The CFSE (5,6-carboxyfluorescein diacetate succinimidyl ester) proliferation assays were performed as described previously. CFSE-labelled PBMC were cultured with either: no antigen, full-length C-peptide (^PI33-63), or ^PI33-63 Q38E (referred to as Q6E), ^PI33-63 Q41E (referred to as Q9E), ^PI33-63 Q54E, (referred to as Q22E) ^PI33-63 Q63E (referred to as Q31E), or ^PI33-63 with all glutamines substituted for glutamic acid, (referred to as QallE). See Supplementary Table 5 for a detailed description of the peptides. Each peptide was used at a final concentration of 10 μM. Positive controls were tetanus toxoid (TT 10LfU/ml, Statens Serum Institut) and/or anti-CD3 (OKT3 10 ng/ml). The results are presented as a cell division index (CDI), the ratio of the number of CD4^+ T cells that have proliferated in the presence of antigen to the number of CD4^+ T cells that have proliferated in the absence of antigen.
(§2) Our analysis of CD4^+ Jurkat lines expressing TCRs derived from primary CD4^+ T cells used TCRs derived from CD4^+ T cells that were selected for their specificity for WT C-peptide. […] This may be due to Q to E substitutions being poorly tolerated by the TCRs that were selected based on their recognition of WT C-peptide. To address this, we measured polyclonal CD4^+ T-cell responses in PBMC from people with recent onset type 1 diabetes. (see Supplementary Tables 5 and 6 for details of each subject). […] Next, in a separate cohort we investigated CD4^+ T-cell responses to the five C-peptide variants with individual Q to E substitutions in PBMC of people with recent onset type 1 diabetes (Fig. 3B). We found, as expected, that a majority of PBMC samples responded to WT C-peptide, but responses to Q to E substituted C-peptide variants were not stronger, in fact in most cases they were weaker, than responses to WT C-peptide. (See Supplementary Tables 7–9 for results from individual subjects). Finally, we asked if people without T1D, but who carried the T1D-associated HLA alleles, HLA-DQ2, or HLA-DQ8 had stronger responses to Q to E substituted C-peptide variants (Fig. 3C). Here few subjects had response to WT C-peptide and only a minority had greater responses to Q to E substituted variants of C-peptide, compared to WT C-peptide.
(§3) Fig. 3 PBMC responses to WT and deamidated C-peptide variants. (A) Proliferation in responses, measured as a cell division index (CDI) to WT or QallE C-peptide were compared in 8 PBMC from 8 people with recent onset T1D. Responses from the same individual are linked. […] (B) PBMC proliferation responses to WT and C-peptide variants with individual Q to E substitution and QallE from people with recent onset T1D (B) and HLA matched control subjects who don't have T1D (C). Only difference which reached statistical significance are marked (* = P < 0.05). For responses in subjects without T1D, none of the differences between groups reached statistical significance, p > 0.05, by Wilcoxon matched pairs signed rank test of Log 10 transformed CDI data. Each point is a different individual, bars show the mean and the standard deviation for each group.

In assay [2] the test system is CD4+ T cells in PBMC from subjects without T1D. The experiment in a line: CFSE-based proliferation assay, PBMC of subjects without T1D. The assay is classed as cell-based, human. The settings on record: CFSE-labelled PBMC, peptide 10 μM, mean CDI. As to the method:
as §1, §2, §3

Regarding “EAEDLEVGQVELGGGPGAGSLQPLALEGSLQ [Q6E, C-peptide variant with glutamine 6 substituted for glutamic acid]”, the “Cell division index (CDI)” value is 1.0 in assay [1] (T1D donor 9); 2.9 in assay [1] (T1D donor 10); 0.9 in assay [1] (T1D donor 11); 3.4 in assay [1] (T1D donor 12); 1.4 in assay [1] (T1D donor 13); 1.0 in assay [1] (T1D donor 14). In addition, the “Cell division index (CDI)” value in assay [1] (T1D donor 15) was 3.6; in assay [1] (T1D donor 16), 2.4; in assay [1] (T1D donor 17) it was 8.5; in assay [1] (T1D donor 18), 0.0; in assay [2] (donor 1 without T1D), 1.0; in assay [2] (donor 2 without T1D), 2.6. The “Cell division index (CDI)” value in assay [2] (donor 3 without T1D) was determined as 2.1; in assay [2] (donor 4 without T1D), 0.8; in assay [2] (donor 5 without T1D) it was 62.1; in assay [2] (donor 6 without T1D), 5.5.
With “EAEDLQVGQVELGGGPGAGSLEPLALEGSLQ [Q22E, C-peptide variant with glutamine 22 substituted for glutamic acid]”, the “Cell division index (CDI)” value was determined as 2.1 in assay [1] (T1D donor 9); 2.3 in assay [1] (T1D donor 10); 0.8 in assay [1] (T1D donor 11); 36.3 in assay [1] (T1D donor 12); 54.8 in assay [1] (T1D donor 13); 2.6 in assay [1] (T1D donor 14). Also, the “Cell division index (CDI)” value was determined as 8.9 in assay [1] (T1D donor 15); 3.2 in assay [1] (T1D donor 16); 1.5 in assay [1] (T1D donor 17); 2.4 in assay [1] (T1D donor 18); 1.3 in assay [2] (donor 1 without T1D); 1.1 in assay [2] (donor 2 without T1D). Also, the “Cell division index (CDI)” value in assay [2] (donor 3 without T1D) is reported as 0.9; in assay [2] (donor 4 without T1D), 1.7; in assay [2] (donor 5 without T1D) it was 1.8; in assay [2] (donor 6 without T1D), 2.4.

The values above are taken from article PMC9811213, “Glutamine deamidation does not increase the immunogenicity of C-peptide in people with type 1 diabetes” (Journal of Translational Autoimmunity, 2022).
